In PubChem BioAssay AID504356 (Broad Institute, 2011) one finds max caspase activation and AC10 data, which are given here for 21 compounds.

The source made the active and inactive calls.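 How the source made its calls: active means curve reaching 10% of positive control caspase signal at or below the top valid tested dose; inactive means opposite-direction activity, or no crossing across tested range.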 A value given as a limit tells only on which side of the number the result lay.

The nature of assay [1]: caspase activation in TSA-primed A1-expressing MEWO, dose response, orthogonal assay for A1 inhibitor project, cell-based, Trichostatin A primed, luminescence, set 2 (AID 504356). The note with it: MEWO A1-expressing, TSA primed, caspase-Glo luminescence, 3 h, stronger effect = higher value.
Assay [2] relates to MEWO A1-expressing, TSA primed, caspase-Glo luminescence, 3 h. Described as above.

As to `O=c1oc2ccccc2c(N2CCCCC2)c1[N+](=O)[O-]`, the max caspase activation in assay [1] (at 0.235 µM) was -1.97% (inactive). As to `Cn1c(=O)c([N+](=O)[O-])c(Oc2ccccc2)c2ccccc21`, the max caspase activation in assay [1] (at 30 µM) is 2.08% (inactive). As for `O=c1oc2ccccc2c(Cl)c1[N+](=O)[O-]`, in assay [1] (at 30 µM), the max caspase activation was -5.13% (inactive). In the case of `Cc1ccc(Sc2c([N+](=O)[O-])c(=O)oc3ccccc23)cc1`, the max caspase activation in assay [1] (at 16 µM) is -4.17% (inactive). For `Cn1c(=O)c([N+](=O)[O-])c(Nc2ccc(Cl)cc2)c2ccccc21`, the max caspase activation in assay [1] (at 0.235 µM) was 3.04% (inactive). `Cn1c(=O)c([N+](=O)[O-])c(-n2cnc3ccccc32)c2ccccc21`: in assay [2], the AC10 was > 30 µM (inactive).

For the compound `O=[N+]([O-])c1cnc2ccccc2c1Sc1ccccc1`, in assay [2], the AC10 is > 30 µM (inactive). Regarding `Cn1c(=O)c([N+](=O)[O-])c(Cl)c2ccccc21`, in assay [1] (at 8 µM), the max caspase activation was 9.18% (inactive). Regarding `C/C1=C/C(=O)O[C@@H]2C[C@@H](CC[C@H](C)/C=C\CC1)O[C@@](O)(C1CSC(=O)N1)C2` (stereo partly specified), the max caspase activation in assay [1] (at 30 µM) was 2.64% (inactive).

As to `O=c1oc2ccccc2c(Nc2cc(Cl)cc(Cl)c2)c1[N+](=O)[O-]`, in assay [1] (at 0.12 µM), the max caspase activation is 2.71% (inactive). For `CN1C(=O)C(C)(C)N(Cc2ccccc2)c2ccccc21`, in assay [1] (at 16 µM), the max caspase activation was -0.643% (inactive). On to `O=c1oc2ccccc2c(Sc2ccccc2)c1[N+](=O)[O-]`, for which the max caspase activation in assay [1] (at 30 µM) is -5.41% (inactive). Regarding `CCOCCCNc1c([N+](=O)[O-])c(=O)n(C)c2ccccc12`, the max caspase activation in assay [1] (at 8 µM) was 1.97% (inactive). Take `Cc1ccc(Nc2c([N+](=O)[O-])c(=O)oc3ccccc23)cc1`: in assay [1] (at 16 µM), the max caspase activation was 1.85% (inactive).

`CCOC(=O)N1CCN(c2c([N+](=O)[O-])c(=O)n(C)c3ccccc23)CC1`: the max caspase activation in assay [1] (at 8 µM) is 0.764% (inactive). For the compound `Cc1ccc(Sc2cc(=O)n(C)c3ccccc23)cc1`, the max caspase activation in assay [1] (at 30 µM) was -5.85% (inactive).

Take `Cc1ccc(Sc2c([N+](=O)[O-])c(=O)n(C)c3ccccc23)cc1`: the AC10 in assay [2] was > 30 µM (inactive). `CCSc1c([N+](=O)[O-])c(=O)oc2ccccc12`: the max caspase activation in assay [1] (at 8 µM) was 2.46% (inactive). With `Cc1ccc(Nc2c([N+](=O)[O-])c(=O)n(C)c3ccccc23)cc1`, the max caspase activation in assay [1] (at 0.5 µM) is 1.48% (inactive). With `Cc1ccc(Sc2c([N+](=O)[O-])cnc3ccccc23)cc1`, the AC10 in assay [2] was 24.9 µM. For `O=C(Oc1cccc(/C=N/Nc2nc(Nc3ccccc3)nc(N3CCOCC3)n2)c1)c1ccco1`, the max caspase activation in assay [1] (at 3.8 µM) was 2.46% (inactive).
